Source: patent US10807958B2, “1,4-bis(3-aminopropyl)piperazine derivative and its use” (INSERM (Institut National de la Sante et de la Recherche …, priority 2015, dated 2020)

How the values were obtained:
[1] = system: Neuroblastoma SKNSH-SY5Y cells expressing the human Tau isoform 412; experiment: 1D gel electrophoresis / Western blot of Tau expression and phosphorylation in treated cells; type: cell-based; settings: 10 μM, vs induced but non-treated condition, FIG. 1
Description: (§1) Pan-Tau and phospho-dependent Tau antibodies included Tau-Nter (M19G, 1/10 000, Sergeant et al., 1999), Tau-Cter (1/10 000, Sergeant et al., 1999, Le Freche et al., 2012), Tau-1 (1/5000, Merck Millipore), S199P (directed against the phospho-serine 199, 1/4000, Sergeant et al., 1999), Tau-Phospho S396 (directed against the phosphor-serine 396, 1/10000, Lifetechnologies), Tau-Phospho 404 (1/10 000, Lifetechnologies), 422 (clone 2H9, a homemade monoclonal antibody developed against a phospho-peptide containing the phosphorylated serine 422 residue of Tau, numbering according to the longest human brain Tau-441 isoform), AT8 (1/1000, Thermo Scientific), AT270 (1/2000, Thermo Scientific), AT100 (1/1000, Thermo Scientific). Neuron specific enolase (1/10 000), β-actin (1/5000) and β-tubulin (1/10 000) were from Sigma-Aldrich.
Human neuroblastoma cell line SKNSH-SY5Y cells expressing the human Tau isoform 412 (with the exon 2 and 10 encoding sequences) (or SY5Y-Tau46) was as previously described in Bretteville et al., 2009.
Neuroblastoma SKNSH-SY5Y cells expressing the human Tau isoform 412 (with the exon 2 and 10 encoding sequences) were treated with 10 μM of the hydrochloride salt of N-[3-(4-{3-[Bis(2-methylpropyl)amino]propyl}piperazin-1-yl)propyl]-1,2,3,4-tetrahydroacridin-9-amine (Example 6, hereinafter named “Compound I⋅HCl”) which was diluted in the culture medium as described in Bretteville et al., 2009.
For the western-blot analysis of Tau proteins, SDS-PAGE was performed according to the manufacturer's instructions using Bis-Tris 4-12% gradient acrylamide gel (NuPage® Bis-Tris PreCast 12 wells, Life Technologies). The apparent molecular weights were calibrated using the molecular weight markers (Novex and Magic Marks, Life Technologies). Electrophoresis was performed under a continuous tension of 100V/per gel for 1 h. […]
(§2) The effect of the compound of Formula I on Tau phosphorylation was analyzed in vitro and in vivo. […]
(§3) Expression and total phosphorylation was assessed by 1D and 2D gel electrophoresis using phospho-dependent and pan-Tau antibodies (FIGS. 1 and 2). […]

[2] = system: Neuroblastoma SKNSH-SY5Y cells expressing the human Tau isoform 412; experiment: 2D gel electrophoresis of Tau isovariants in treated cells; type: cell-based; settings: 10 μM, vs control conditions, FIG. 2
Description: as §1
Human neuroblastoma cell line SKNSH-SY5Y cells expressing the human Tau isoform 412 (with the exon 2 and 10 encoding sequences) (or SY5Y-Tau46) was as previously described in Bretteville et al., 2009. […]
as §2, §3

## CC(C)CN(CCCN1CCN(CCCNc2c3c(nc4ccccc24)CCCC3)CC1)CC(C)C [compound of Formula I, N-[3-(4-{3-[Bis(2-methylpropyl)amino]propyl}piperazin-1-yl)propyl]-1,2,3,4-tetrahydroacridin-9-amine]
[1]; S199P antibody
  Tau phosphorylation at serine 199: reduced
[1]; S396 antibody
  Tau phosphorylation at serine 396: reduced
[1]; pan-Tau antibodies
  Tau expression: No significant change
[2]
  Tau isovariants at the neutral pI, N- and C-terminal directed pan-Tau antibodies: reduction
  Tau isovariants at the neutral pI, Tau396 phospho-dependent antibody (S396): reduction
